According to patent publication US5578445A, “In vitro method of evaluating the effects of a substance” (priority 1991, dated 1996):
Like-named read-outs stand apart in the source and are kept apart here.

Legend:
ZR 75-1 = assay: Proliferation, amount of ATP after 6 days, ZR 75-1; format: cell-based, human; conditions: for activity at 0.0001 µM: +E2 (0.1 nM), 6 days
Description: The growth is determined by measuring the amount of ATP in the cells after incubation with ligands for 6 days. […]
Samples of the cells ZR 75-1 (8000 cells/well) and MCF7 (4000 cells/well), respectively, were distributed into microtiter plates having 96 wells.
The following hormone additions were made:
The medium was replaced by fresh medium of the same composition as on day 6, and hormone additions as on day 6.
6 days after hormone addition the number of cells and their morphology were investigated. Medium from each well was poured off. To each well was added 100 μl 1% TCA (trichloro acetic acid).

MCF7 = assay: Proliferation, amount of ATP after 6 days, MCF7; conditions: for effect on growth: MCF7; for activity at 0.0001 µM: +E2 (0.1 nM)

Compound | effect on growth (ZR 75-1; 10^-7 M Tamoxifen alone, listed as Tamoxifen) | effect on growth (ZR 75-1; 10^-7 M Tamoxifen alone, listed as tamoxifen) | activity at 1 µM (ZR 75-1; Homo sapiens, ZR-75-1, 144 h, + 10^-6 M Tam, -E2, 6 days, read-out: relative amount of ATP (no hormone added = 1)) | activity at 0.1 µM (ZR 75-1; Homo sapiens, ZR-75-1, 144 h, + 10^-7 M Tam, -E2, 6 days, read-out: relative amount of ATP (no hormone added = 1)) | activity at 0.01 µM (ZR 75-1; Homo sapiens, ZR-75-1, 144 h, + 10^-8 M Tam, -E2, 6 days, read-out: relative amount of ATP (no hormone added = 1)) | activity at 0.001 µM (ZR 75-1; Homo sapiens, ZR-75-1, 144 h, + 10^-9 M Tam, -E2, 6 days, read-out: relative amount of ATP (no hormone added = 1)) | Tamoxifen concentration at which an antagonistic effect can be seen (ZR 75-1; presence of 0.1 nM E2) | activity at 1 µM (MCF7; Homo sapiens, MCF7, 144 h, read-out: relative amount of ATP (no hormone added = 1), MCF7, + 10^-6 M Tam, -E2, 6 days) | activity at 0.1 µM (MCF7; Homo sapiens, MCF7, 144 h, read-out: relative amount of ATP (no hormone added = 1), MCF7, + 10^-7 M Tam, -E2, 6 days) | activity at 0.01 µM (MCF7; Homo sapiens, MCF7, 144 h, read-out: relative amount of ATP (no hormone added = 1), MCF7, + 10^-8 M Tam, -E2, 6 days) | activity at 0.001 µM (MCF7; Homo sapiens, MCF7, 144 h, read-out: relative amount of ATP (no hormone added = 1), MCF7, + 10^-9 M Tam, -E2, 6 days) | effect on growth (MCF7; Tamoxifen alone) | effect on growth (ZR 75-1; 0.1 nM E2) | activity at 0.0001 µM (ZR 75-1; Homo sapiens, ZR-75-1, 144 h, No LY 117018 added, Experiment 2, read-out: relative amount of ATP (no hormone added = 1)) | activity at 0.0001 µM (ZR 75-1; Homo sapiens, ZR-75-1, 144 h, No Tam added, Experiment 1, read-out: relative amount of ATP (no hormone added = 1)) | activity at 0.0001 µM (MCF7; Homo sapiens, MCF7, 144 h, read-out: relative amount of ATP (no hormone added = 1), MCF7, No LY 117018 added, 6 days, Experiment 2) | activity at 0.0001 µM (MCF7; Homo sapiens, MCF7, 144 h, read-out: relative amount of ATP (no hormone added = 1), MCF7, No Tam added, 6 days, Experiment 1) | effect on growth (MCF7; 0.1 nM E2)
CC/C(=C(\c1ccccc1)c1ccc(OCCN(C)C)cc1)c1ccccc1 [Tam, tamoxifen] | functions as a weak agonist | weak agonistic effect | 131% | 155% | 109% | 91% | 10^-6 M | 94% | 109% | 122% | 96% | has no effect | – | – | – | – | – | –
C[C@]12CC[C@@H]3c4ccc(O)cc4CC[C@H]3[C@@H]1CC[C@@H]2O [E2, estradiol] | – | – | – | – | – | – | – | – | – | – | – | – | increase their growth dramatically | 468% | 351% | 230% | 266% | increase their growth dramatically
